In paper PMC5599593, “A general reaction mechanism for carbapenem hydrolysis by mononuclear and binuclear metallo-β-lactamases” (Nature Communications, 2017):

Columns and labels:
Assay type in all cases: biochemical
[1] = target: T1, bi-Zn(II)-NDM-1 (Klebsiella pneumoniae, UniProt C7C422); assay: stopped-flow absorption, single turnover; settings: 100 mM Hepes pH 7.5, 200 mM NaCl, 300 µM ZnSO4, 6 °C
T1 construct: gene blaNDM-1

[2] = target: T2, mono-Zn(II)-Sfh-I (Serratia fonticola, UniProt Q9RMI1); assay: stopped-flow absorption (pre-steady state); RFQ Zn K-edge XAS of ES complex; settings: 50 mM Hepes pH 7, 4 °C
T2 construct: gene sfhI; expressed from pET-26b; anion exchange and size exclusion purification; mono-Zn(II) form

[3] = target: T3, bi-Zn(II)-BcII (Bacillus cereus, UniProt P04190); assay: rapid-freeze-quench X-ray absorption spectroscopy; settings: 10 ms reaction
T3 construct: gene blm; expressed as N-terminal GST fusion, GST removed with thrombin; bi-Zn(II) form

[4] = target: T1, bi-Zn(II)-NDM-1; assay: stopped-flow absorption; settings: 100 mM Hepes pH 7.5, 200 mM NaCl, 300 µM ZnSO4, 6 °C

T1 sequence (C7C422 27-270 limits assumed): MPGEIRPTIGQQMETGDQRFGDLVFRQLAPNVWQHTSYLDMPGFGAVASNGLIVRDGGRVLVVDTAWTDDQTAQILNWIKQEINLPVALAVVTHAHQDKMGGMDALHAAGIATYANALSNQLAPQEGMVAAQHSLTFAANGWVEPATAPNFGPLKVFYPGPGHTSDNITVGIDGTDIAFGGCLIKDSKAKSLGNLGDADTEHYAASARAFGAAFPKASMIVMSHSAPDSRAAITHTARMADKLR
T2 sequence (Q9RMI1 entry or part of it): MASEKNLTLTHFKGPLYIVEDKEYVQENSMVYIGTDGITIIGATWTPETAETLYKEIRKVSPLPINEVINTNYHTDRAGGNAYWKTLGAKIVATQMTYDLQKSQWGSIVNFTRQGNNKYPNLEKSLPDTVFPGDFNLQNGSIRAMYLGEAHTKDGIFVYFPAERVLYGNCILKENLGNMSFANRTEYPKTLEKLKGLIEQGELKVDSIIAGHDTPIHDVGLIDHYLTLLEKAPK
T3 sequence (P04190 31-257): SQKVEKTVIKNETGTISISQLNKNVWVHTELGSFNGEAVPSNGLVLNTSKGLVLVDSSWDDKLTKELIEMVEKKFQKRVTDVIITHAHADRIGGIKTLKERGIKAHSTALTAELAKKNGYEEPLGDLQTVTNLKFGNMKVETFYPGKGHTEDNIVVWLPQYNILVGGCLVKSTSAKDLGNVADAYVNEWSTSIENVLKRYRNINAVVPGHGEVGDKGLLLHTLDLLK

Compound	stopped-flow absorption, single turnover [1]	stopped-flow absorption (pre-steady state); RFQ Zn K-edge XAS of ES complex [2]	rapid-freeze-quench X-ray absorption spectroscopy [3]	stopped-flow absorption [4]
C[C@@H](O)[C@H]1C(=O)N2C(C(=O)O)=C(SCCN=CN)C[C@H]12 [imipenem]	Hydrolysis of imipenem by bi-Zn(II)-NDM-1 under single turnover conditions	imipenem hydrolysis by the mono-Zn(II) B2 lactamase Sfh-I	X-ray absorption spectroscopy to analyse hydrolysis of imipenem by the B1 enzyme bi-Zn(II)-BcII	–
C[C@@H](O)[C@H]1C(=O)N2C(C(=O)O)=C(S[C@@H]3CN[C@H](C(=O)N(C)C)C3)[C@H](C)[C@H]12 [meropenem]	–	–	–	We also assayed hydrolysis of another carbapenem, meropenem, by bi-Zn(II)-NDM-1
